Here are results for 29 compounds from article PMC8279492, “Quinolinonyl Non-Diketo Acid Derivatives as Inhibitors of HIV-1 Ribonuclease H and Polymerase Functions of Reverse Transcriptase” (Journal of Medicinal Chemistry, 2021).

SMILES strings stand for the structures. Where two headings read alike, the source gives them in different places. Bounds are passed on as bounds.

For data set [1], the target named is T1, HIV-1 RT-associated RNase H activity (Human immunodeficiency virus type 1 group M subtype B, UniProt P03366).
T1 construct: His-tagged p66/p51 HIV-1 RT group M subtype B; His; made in house; host or cells: Escherichia coli M15
Put plainly: biochemical. The data set is classed as biochemical. How it is done:
(11) and β-thujaplicinol (BTP) used as positive controls.
His-tagged p66/p51 HIV-1 RT group M subtype B coded in a p6HRT-prot plasmid was expressed in the Escherichia coli strain M15.[65] Heterodimeric RTs were expressed essentially and purified as described.[66]
The HIV-1 RT-associated RNase H activity was measured as described.[68] Briefly, the reaction was carried out in a black 96-well plate in a total volume of 100 μL. […] Experiments were performed in duplicate and replicated at least two times. Data were analyzed as described.[36]

The test system of another data set is HIV-1 replication. Put plainly: HIV-1 replication in HeLa-CD4-LTR-β-gal reporter cells. The data set is classed as cell-based. Particulars: read-out: antiviral activity EC50. The protocol: (§1) HIV-1 replication was monitored using HeLa-CD4-LTR-β-gal reporter cells as previously described.[69] Briefly, β-galactosidase activity was monitored 24 h post infection using a replication-competent HIV produced in-house (H9-laï coculture) and a serial dilution of molecules or an equivalent volume of DMSO. In parallel, compounds’ toxicity was determined at 24 h in the same cell line using CellTiter 96 AQueous One Solution Cell Proliferation Assay (Promega, France).

The nature of data set [2]: Compounds' toxicity, CellTiter 96 AQueous One Solution Cell Proliferation Assay. Particulars: human, HeLa-CD4-LTR-β-gal cells. The data set is classed as cell-based. How it is done: as §1
The target in another data set is HIV-1 IN (Human immunodeficiency virus type 1 group M subtype B, UniProt P12497). As to the kind of experiment: biochemical. The protocol: His-tagged NL4-3 IN was expressed from a pET15b plasmid in the E. coli BL21 pLys strain. Recombinant protein was purified as previously described[67] following a batch preparation on Ni-NTA beads (Qiagen, Paris, France).
Both oligonucleotides were purchased from Integrated DNA Technologies, Inc. (Coralville, IA), and the gel was purified in-house. ST reactions were performed by adding molecules or an equivalent volume of 100% dimethyl sulfoxide (DMSO, used as the drug solvent) to a mixture of 20 nM duplex DNA substrate and 400 nM IN in 50 mM MOPS pH 7.2, 7.5 mM MgCl2, and 14 mM 2-mercaptoethanol. Mixtures were incubated at 37 °C for 2 h, and the reaction was quenched by addition of an equal volume of loading buffer [formamide containing 1% sodium dodecyl sulfate (SDS), 0.25% bromophenol blue, and xylene cyanol]. […] Dried gels were visualized using a FLA5000 (Fuji Photo Film, Tokyo, Japan). Densitometric analyses were performed using ImageQuant 5.1 software from GE Healthcare.

Setting [3] is: anti-RH activity (IC50 ± SD), HIV-1 RT-associated RNase H activity, dose-response curves, no preincubation.
The mark [4] stands for this setting: Human immunodeficiency virus 1, HeLa-CD4-LTR-β-gal cells, 24 h post infection.
The mark [5] stands for this setting: CC50 (cytotoxic concentration 50%), 24 h.
Where [6] appears, read: HIV-1 RT-associated RNase H activity, dose-response curves, no preincubation.

As usually defined, the IC50 is the concentration needed to halve the response being measured. A high value points to lower potency. Regarding `CCOC(=O)c1cn(Cc2ccc(F)cc2)c2ccc(O)cc2c1=O` [5g, Ethyl 1-(4-Fluorobenzyl)-6-hydroxy-4-oxo-1,4-dihydroquinoline-3-carboxylate], the half-inhibitory concentration (IC50) in data set [1] (setting [3]) is greater than 100 µM.

In data set [1] (setting [3]), `CCOC(=O)c1cn(Cc2ccc(F)cc2)c2ccc(Oc3ccccc3)cc2c1=O` [5i, Ethyl 1-(4-Fluorobenzyl)-4-oxo-6-phenoxy-1,4-dihydroquinoline-3-carboxylate] displayed an IC50 of 45.5 ± 1.5 µM.

The compound `CCOC(=O)c1cn(Cc2ccc(F)cc2)c2ccc(OCc3ccc(OCc4ccccc4)cc3)cc2c1=O` [5t, Ethyl 6-((4-(Benzyloxy)benzyl)oxy)-1-(4-fluorobenzyl)-4-oxo-1,4-dihydroquinoline-3-carboxylate] returned an IC50 in data set [1] (setting [3]) greater than 100 µM.

`CC(C)c1ccc(O)c(=O)c(O)c1` [BTP, β-thujaplicinol, reference compound]: inhibition in data set [1] (setting [3]) was half-maximal at 0.19 ± 0.03 µM (IC50).

In turn, `CN(C)CCCOc1ccc2c(c1)c(=O)c(C(=O)O)cn2Cc1ccc(F)cc1` [4j, 6-(3-(Dimethylamino)propoxy)-1-(4-fluorobenzyl)-4-oxo-1,4-dihydroquinoline-3-carboxylic Acid] yielded an IC50 in data set [1] (setting [3]) of 15.4 ± 3 µM.

In turn, `CCOC(=O)c1cn(Cc2ccc(F)cc2)c2ccc([N+](=O)[O-])cc2c1=O` [5e, Ethyl 1-(4-Fluorobenzyl)-6-nitro-4-oxo-1,4-dihydroquinoline-3-carboxylate] had an IC50 in data set [1] (setting [3]) of 47.8 ± 10 µM.

The EC50 is the concentration giving half of the maximal effect. What is called CC50 is the concentration at which the toxic effect on the cells reaches its halfway point. For the compound `CCOC(=O)c1cn(Cc2ccc(F)cc2)c2ccc(/C=C/C(=O)c3ccccc3)cc2c1=O` [5k, (E)-Ethyl 1-(4-Fluorobenzyl)-4-oxo-6-(3-oxo-3-phenylprop-1-en-1-yl)-1,4-dihydroquinoline-3-carboxylate], the concentration giving a half-maximal response (EC50) with HIV-1 replication (setting [4]) was greater than 50 µM. Besides, the CC50 at 24 h in data set [2] (setting [5]) is greater than 100 µM. Besides, the IC50 in data set [1] (setting [3]) came out at 15.3 ± 1.6 µM.

In turn, `CCOC(=O)c1cn(Cc2ccc(F)cc2)c2ccc(OCCCN(C)C)cc2c1=O` [5j, Ethyl 6-(3-(Dimethylamino)propoxy)-1-(4-fluorobenzyl)-4-oxo-1,4-dihydroquinoline-3-carboxylate] registered an IC50 in data set [1] (setting [3]) greater than 100 µM.

With `CCOC(=O)c1cn(Cc2ccc(F)cc2)c2ccc(OCc3ccccc3)cc2c1=O` [5l, Ethyl 6-(Benzyloxy)-1-(4-fluorobenzyl)-4-oxo-1,4-dihydroquinoline-3-carboxylate], the half-maximal effective concentration (EC50) in the data set with HIV-1 replication (setting [4]) is greater than 100 µM. In data set [2] (setting [5]), this compound had a CC50 at 24 h greater than 100 µM. In data set [1] (setting [3]), this compound registered an IC50 of 8 ± 1.6 µM.

In the case of `COc1ccc2c(c1)c(=O)c(C(=O)O)cn2Cc1ccc(F)cc1` [4h, 1-(4-Fluorobenzyl)-6-methoxy-4-oxo-1,4-dihydroquinoline-3-carboxylic Acid], the “anti-RH activity (IC50 ± SD)” value in data set [1] (setting [6]) is reported as “no activity”. The half-maximal inhibitory concentration (IC50) in data set [1] (setting [3]) is greater than 100 µM.

With `CCOC(=O)c1cn(Cc2ccc(F)cc2)c2ccc(OC)cc2c1=O` [5h, Ethyl 1-(4-Fluorobenzyl)-6-methoxy-4-oxo-1,4-dihydroquinoline-3-carboxylate], the “anti-RH activity (IC50 ± SD)” value in data set [1] (setting [6]) is reported as “no activity”. In addition, the IC50 in data set [1] (setting [3]) was greater than 100 µM.

On to `O=C(O)c1cn(Cc2ccc(F)cc2)c2ccc(OCc3ccc4ccccc4c3)cc2c1=O` [4p, 1-(4-Fluorobenzyl)-6-(naphthalen-2-ylmethoxy)-4-oxo-1,4-dihydroquinoline-3-carboxylic Acid], for which, in the data set on HIV-1 replication (setting [4]), the 50% effective concentration (EC50) is greater than 50 µM. Besides, the CC50 at 24 h in data set [2] (setting [5]) was greater than 200 µM; in data set [2] (supplement CSV, read-out: CC50) it was greater than 50 µM. Besides, the half-maximal inhibitory concentration (IC50) in data set [1] (RH IC50 (uM), supplement CSV) worked out at 30.3 ± 1.69 µM; in data set [1] (setting [3]), 30.3 ± 1.7 µM.

`CCOC(=O)c1cn(Cc2ccc(F)cc2)c2ccc(C(F)(F)F)cc2c1=O` [5c, Ethyl 1-(4-Fluorobenzyl)-4-oxo-6-(trifluoromethyl)-1,4-dihydroquinoline-3-carboxylate]: the half-maximal inhibitory concentration (IC50) in data set [1] (setting [3]) is 59 ± 5 µM.

As for `CCOC(=O)c1cn(Cc2ccc(F)cc2)c2ccc(OCc3cccc4ccccc34)cc2c1=O` [5o, Ethyl 1-(4-Fluorobenzyl)-6-(naphthalen-1-ylmethoxy)-4-oxo-1,4-dihydroquinoline-3-carboxylate], the concentration giving a half-maximal response (EC50) with HIV-1 replication (Human immunodeficiency virus 1, 24 h) was greater than 100 µM. For the same compound, the 50% cytotoxic concentration (CC50) at 24 h in data set [2] (setting [5]) is greater than 100 µM. It took 1.49 ± 0.33 µM to reach half-maximal inhibition in data set [1] (setting [3]) (IC50).

In the case of `O=C(O)c1cn(Cc2ccc(F)cc2)c2ccccc2c1=O` [4a, 1-(4-Fluorobenzyl)-4-oxo-1,4-dihydroquinoline-3-carboxylic Acid], the IC50 in data set [1] (setting [3]) is greater than 100 µM.

Take `CCOC(=O)c1cn(Cc2ccc(F)cc2)c2ccc(OCc3ccc(-c4ccccc4)cc3)cc2c1=O` [5s, Ethyl 6-([1,1′-Biphenyl]-4-ylmethoxy)-1-(4-fluorobenzyl)-4-oxo-1,4-dihydroquinoline-3-carboxylate]: the IC50 in data set [1] (setting [3]) was greater than 100 µM.

Take `CCOC(=O)c1cn(Cc2ccc(F)cc2)c2ccc(C(C)=O)cc2c1=O` [5d, Ethyl 6-Acetyl-1-(4-fluorobenzyl)-4-oxo-1,4-dihydroquinoline-3-carboxylate]: the 50% effective concentration (EC50) with HIV-1 replication (setting [4]) is greater than 50 µM. In addition, the cytotoxic concentration (CC50) at 24 h in data set [2] (setting [5]) is greater than 200 µM; in data set [2] (supplement CSV, read-out: CC50), greater than 50 µM. In addition, the IC50 on HIV-1 IN was greater than 100 µM; in data set [1] (setting [3]) it was 11 ± 1 µM.

On to `O=C(O)c1cn(Cc2ccc(F)cc2)c2ccc(Oc3ccccc3)cc2c1=O` [4i, 1-(4-Fluorobenzyl)-4-oxo-6-phenoxy-1,4-dihydroquinoline-3-carboxylic Acid], for which the IC50 in data set [1] (setting [3]) is 32 ± 11 µM.

Consider `O=C(O)c1cn(Cc2ccc(F)cc2)c2ccc(C(F)(F)F)cc2c1=O` [4c, 1-(4-Fluorobenzyl)-4-oxo-6-(trifluoromethyl)-1,4-dihydroquinoline-3-carboxylic Acid], for which the IC50 in data set [1] (setting [3]) was greater than 100 µM.

For `CS(=O)(=O)c1ccc2c(c1)c(=O)c(C(=O)O)cn2Cc1ccc(F)cc1` [4f, 1-(4-Fluorobenzyl)-6-(methylsulfonyl)-4-oxo-1,4-dihydroquinoline-3-carboxylic Acid], 100 µM corresponded to half-maximal inhibition in data set [1] (setting [3]) (IC50).

`CCOC(=O)c1cn(Cc2ccc(F)cc2)c2ccc(S(C)(=O)=O)cc2c1=O` [5f, Ethyl 1-(4-Fluorobenzyl)-6-(methylsulfonyl)-4-oxo-1,4-dihydroquinoline-3-carboxylate] came in with a half-maximal inhibitory concentration (IC50) in data set [1] (setting [3]) greater than 100 µM.

`N#Cc1ccc2c(c1)c(=O)c(C(=O)O)cn2Cc1ccc(F)cc1` [4b, 6-Cyano-1-(4-fluorobenzyl)-4-oxo-1,4-dihydroquinoline-3-carboxylic Acid]: the half-inhibitory concentration (IC50) in data set [1] (setting [3]) was greater than 100 µM.

With `O=C(O)c1cn(Cc2ccc(F)cc2)c2ccc([N+](=O)[O-])cc2c1=O` [4e, 1-(4-Fluorobenzyl)-6-nitro-4-oxo-1,4-dihydroquinoline-3-carboxylic Acid], it took 56 ± 4 µM to reach half-maximal inhibition in data set [1] (setting [3]) (IC50).

Compound `CCOC(=O)c1cn(Cc2ccc(F)cc2)c2ccc(OCc3ccc4c(c3)OCO4)cc2c1=O` [5q, Ethyl 6-(Benzo[d][1,3]dioxol-5-ylmethoxy)-1-(4-fluorobenzyl)-4-oxo-1,4-dihydroquinoline-3-carboxylate] showed an IC50 in data set [1] (setting [3]) of 55.3 ± 1.7 µM.

Consider `O=C(O)c1cn(Cc2ccc(F)cc2)c2ccc(OCCCCc3ccccc3)cc2c1=O` [4r, 1-(4-Fluorobenzyl)-4-oxo-6-(4-phenylbutoxy)-1,4-dihydroquinoline-3-carboxylic Acid], for which the EC50 in the data set with HIV-1 replication (setting [4]) is greater than 50 µM. Also, the CC50 at 24 h in data set [2] (setting [5]) was greater than 200 µM; in data set [2] (supplement CSV, read-out: CC50), greater than 50 µM. This compound gave an IC50 in data set [1] (setting [3]) of 8.27 ± 0.45 µM.

In the case of `CCOC(=O)c1cn(Cc2ccc(F)cc2)c2ccc(C#N)cc2c1=O` [5b, Ethyl 6-Cyano-1-(4-fluorobenzyl)-4-oxo-1,4-dihydroquinoline-3-carboxylate], in data set [1] (setting [3]), the IC50 is greater than 100 µM.

For `CCOC(=O)c1cn(Cc2ccc(F)cc2)c2ccc(OCCCCc3ccccc3)cc2c1=O` [5r, Ethyl 1-(4-Fluorobenzyl)-4-oxo-6-(4-phenylbutoxy)-1,4-dihydroquinoline-3-carboxylate], the EC50 with HIV-1 replication (setting [4]) was greater than 16 µM. The 50% cytotoxic concentration (CC50) at 24 h in data set [2] (setting [5]) is greater than 200 µM; in data set [2] (supplement CSV, read-out: CC50), greater than 50 µM. In addition, the IC50 in data set [1] (RH IC50 (uM), supplement CSV) stood at 28.4 ± 4.3 µM; in data set [1] (setting [3]), 28.4 ± 4.3 µM.

Consider `CCOC(=O)c1cn(Cc2ccc(F)cc2)c2ccc(OCc3ccc4ccccc4c3)cc2c1=O` [5p, Ethyl 1-(4-Fluorobenzyl)-6-(naphthalen-2-ylmethoxy)-4-oxo-1,4-dihydroquinoline-3-carboxylate], for which the EC50 with HIV-1 replication (setting [4]) is greater than 50 µM. Besides, the CC50 at 24 h was 73 ± 24 µM in data set [2] (setting [5]) and greater than 50 µM in data set [2] (supplement CSV, read-out: CC50). The same compound had an IC50 in data set [1] (setting [3]) of 19.6 µM.

In turn, `O=C(O)c1cn(Cc2ccc(F)cc2)c2ccc(O)cc2c1=O` [4g, 1-(4-Fluorobenzyl)-6-hydroxy-4-oxo-1,4-dihydroquinoline-3-carboxylic Acid] showed a half-inhibitory concentration (IC50) in data set [1] (setting [3]) of 74 ± 9 µM.
